Measured values as given in patent publication US11970453B1, “2-ethoxy-8-(4-fluorobenzylidene)-4-(4-fluorophenyl)-5,6,7,8-tetrahydroquinoline-3-carbonitrile as an antimicrobial compound” (KING FAISAL UNIVERSITY, priority 2023, dated 2024).

Columns and labels:
Pseudomonas aeruginosa = assay: Antimicrobial screening, agar dilution method; assay type: cell-based; conditions: after 10, 20, 40 and 60 minutes at all dilutions 1:100, 1:200, 1:400, 1:800
Experimental: (§1) The antibacterial properties of the synthesized compound 2-ethoxy-8-(4-fluorobenzylidene)-4-(4-fluorophenyl)-5,6,7,8-tetrahydroquinoline-3-carbonitrile were studied by the method of agar dilution. Test solutions of each compound was prepared in concentration of 1% using dimethylformamide as a solvent then they are diluted in physiological solution to obtain the final experimental dilutions 1:100, 1:200, 1:400, 1:800. The effects of these substances are compared with furacillin in a controllable study. The testing microbes used were gram positive bacteria Staphylococcus aureus, gram negative bacteria Pseudomonas aeruginosa and Escherichia coli and Candida albicans fungus. The experiments used for this survey were meat-pentonlu agar (EPA) for cultivation of bacteria and Saburo environment for the fungus. Each experiment used 1 mL of test solution on each plate […]. Two drops of emulsified with microbes feel were added. All experimental samples were taken from the agar after 10, 20, 40, 60 minutes in the environment on the basis of Patrk planted. The bacteria were cultivated at a temperature of 37° C. for 1 day and the mushroom was kept in a thermostat for […] at a temperature of 28° C. Then results were checked.

Staphylococcus aureus = assay: Antimicrobial screening, agar dilution method; assay type: cell-based; conditions: after 10, 20, 40 and 60 minutes at all dilutions 1:100, 1:200, 1:400, 1:800
Experimental: as §1

Candida albicans = assay: Antimicrobial screening, agar dilution method; assay type: cell-based; conditions: after 10, 20, 40 and 60 minutes at all dilutions 1:100, 1:200, 1:400, 1:800
Experimental: as §1

Escherichia coli = assay: Antimicrobial screening, agar dilution method; assay type: cell-based; conditions: after 10, 20, 40 and 60 minutes at all dilutions 1:100, 1:200, 1:400, 1:800
Experimental: as §1

melting point: 151 to 153 °C
Structure (SMILES): CCOc1nc2c(c(-c3ccc(F)cc3)c1C#N)CCC/C2=C\c1ccc(F)cc1 [2-ethoxy-8-(4-fluorobenzylidene)-4-(4-fluorophenyl)-5,6,7,8-tetrahydroquinoline-3-carbonitrile]
inhibition activity (Pseudomonas aeruginosa): highest inhibition activity
inhibition activity (Staphylococcus aureus): highest inhibition activity
inhibition activity (Candida albicans): highest inhibition activity
inhibition activity (Escherichia coli): highest inhibition activity
